Measurements from ChEMBL document CHEMBL1139251, “Urea based CCR3 antagonists employing a tetrahydro-1,3-oxazin-2-one spacer” (Bioorg Med Chem Lett, 2009).

Assays:
Eosinophil = assay: Induction of shape change in human eosinophils by flow cytometry; format: functional, cell-based
Cytochrome P450 2D6 = Cytochrome P450 2D6 (Homo sapiens, UniProt P10635); assay: Inhibition of CYP2D6; format: ADME
[1] = biological target: T1, C-C chemokine receptor type 3 (Homo sapiens, UniProt P51677); assay: Binding affinity to CCR3 receptor
T1 sequence (P51677 whole entry): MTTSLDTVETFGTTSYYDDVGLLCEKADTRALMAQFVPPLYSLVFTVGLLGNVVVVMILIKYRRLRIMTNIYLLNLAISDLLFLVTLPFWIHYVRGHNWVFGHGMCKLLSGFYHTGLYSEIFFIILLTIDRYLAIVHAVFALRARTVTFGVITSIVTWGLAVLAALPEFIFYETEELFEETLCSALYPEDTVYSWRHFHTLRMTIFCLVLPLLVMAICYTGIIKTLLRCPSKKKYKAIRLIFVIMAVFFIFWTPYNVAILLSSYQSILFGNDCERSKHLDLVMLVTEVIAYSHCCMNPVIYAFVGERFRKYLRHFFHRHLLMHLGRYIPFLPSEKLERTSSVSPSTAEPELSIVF

[2] = biological target: Voltage-gated inwardly rectifying potassium channel KCNH2 (Homo sapiens, UniProt Q12809); assay: Inhibition of human ERG by calcium-flux based assay
Liver microsomes = assay: Metabolic stability in human liver microsomes; format: ADME, Microsome

Chain of Cytochrome P450 2D6 (P10635 whole entry): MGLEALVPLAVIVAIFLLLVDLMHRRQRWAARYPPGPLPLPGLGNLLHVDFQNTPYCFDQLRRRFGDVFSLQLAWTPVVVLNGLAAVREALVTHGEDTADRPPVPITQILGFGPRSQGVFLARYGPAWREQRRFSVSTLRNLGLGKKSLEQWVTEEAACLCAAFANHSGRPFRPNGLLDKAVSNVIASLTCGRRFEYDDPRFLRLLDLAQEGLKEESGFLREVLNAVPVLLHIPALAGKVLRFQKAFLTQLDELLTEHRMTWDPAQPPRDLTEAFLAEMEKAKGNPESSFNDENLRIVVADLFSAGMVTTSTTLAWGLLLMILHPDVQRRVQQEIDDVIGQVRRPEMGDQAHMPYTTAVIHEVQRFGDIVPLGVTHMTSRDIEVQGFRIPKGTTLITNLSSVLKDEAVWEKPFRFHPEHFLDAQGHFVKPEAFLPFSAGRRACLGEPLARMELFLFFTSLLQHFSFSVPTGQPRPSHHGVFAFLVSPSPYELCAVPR
Chain of Voltage-gated inwardly rectifying potassium channel KCNH2 (Q12809 whole entry): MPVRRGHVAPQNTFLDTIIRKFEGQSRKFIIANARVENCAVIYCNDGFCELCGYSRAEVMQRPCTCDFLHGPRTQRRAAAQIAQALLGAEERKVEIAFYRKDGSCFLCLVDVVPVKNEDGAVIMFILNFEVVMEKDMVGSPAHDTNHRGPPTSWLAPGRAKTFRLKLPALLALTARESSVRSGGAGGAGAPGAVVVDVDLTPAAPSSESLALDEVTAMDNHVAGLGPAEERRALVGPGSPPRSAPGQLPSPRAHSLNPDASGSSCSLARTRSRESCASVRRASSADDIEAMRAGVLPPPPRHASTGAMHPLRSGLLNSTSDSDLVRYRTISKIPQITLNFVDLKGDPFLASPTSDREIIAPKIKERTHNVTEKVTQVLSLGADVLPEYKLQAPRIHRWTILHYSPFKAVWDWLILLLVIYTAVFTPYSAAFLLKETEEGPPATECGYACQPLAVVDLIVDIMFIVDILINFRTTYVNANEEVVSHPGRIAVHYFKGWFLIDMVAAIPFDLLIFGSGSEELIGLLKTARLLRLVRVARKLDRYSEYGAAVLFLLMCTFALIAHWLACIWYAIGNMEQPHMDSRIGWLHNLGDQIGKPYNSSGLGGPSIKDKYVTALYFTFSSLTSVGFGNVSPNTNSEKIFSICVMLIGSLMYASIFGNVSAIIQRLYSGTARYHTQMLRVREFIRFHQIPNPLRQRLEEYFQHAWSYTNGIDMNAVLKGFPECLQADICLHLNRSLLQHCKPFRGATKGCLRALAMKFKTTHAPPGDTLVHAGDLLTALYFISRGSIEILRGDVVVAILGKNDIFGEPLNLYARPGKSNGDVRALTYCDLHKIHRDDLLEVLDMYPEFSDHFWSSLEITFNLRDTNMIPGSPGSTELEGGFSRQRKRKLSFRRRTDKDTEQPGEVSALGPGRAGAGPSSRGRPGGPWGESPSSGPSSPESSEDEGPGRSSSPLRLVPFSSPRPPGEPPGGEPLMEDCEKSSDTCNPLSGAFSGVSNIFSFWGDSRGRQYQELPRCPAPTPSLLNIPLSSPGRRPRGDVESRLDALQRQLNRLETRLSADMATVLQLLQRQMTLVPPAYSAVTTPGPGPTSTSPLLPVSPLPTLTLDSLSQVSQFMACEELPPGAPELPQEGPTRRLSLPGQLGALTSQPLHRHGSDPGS

SMILES	IC50 (Eosinophil; Homo sapiens, Eosinophil) [nM]	IC50 [1] [nM]	IC50 (Cytochrome P450 2D6) [nM]	further results
C[C@@H](NC(=O)Nc1cccc(-c2nnnn2C)c1)[C@@H](O)CN1CCC[C@@H](Cc2ccc(F)cc2)C1	0.038			Ki (Cytochrome P450 2D6): 2600 nM
CN1C[C@@H](NC(=O)Nc2cccc(-c3nnnn3C)c2)[C@H](CN2CCC[C@@H](Cc3ccc(F)cc3)C2)OC1=O		0.23	4300	
CN1C[C@@H](NC(=O)Nc2cccc(-c3nnnn3C)c2)[C@H](CN(CCCc2ccc(F)cc2)C2CC2)OC1=O	2.2	2.1		
CCCN(CCCc1ccc(F)cc1)C[C@@H]1OC(=O)N(C)C[C@H]1NC(=O)Nc1nc(C)cs1		9.2		
CC(=O)c1sc(NC(=O)NC2(C)CN(C)C(=O)OC2CN2CCC[C@@H](Cc3ccc(F)cc3)C2)nc1C (mixture of isomers)		1.1	21000	
CN1CC(C)(NC(=O)Nc2cccc(-c3nnnn3C)c2)C(CN2CCC[C@@H](Cc3ccc(F)cc3)C2)OC1=O (mixture of isomers; 19a)		0.12	33000	IC50 (Eosinophil; eosinophil): 2.4 nM
CN1CC(C)(NC(=O)Nc2cccc(-c3nnnn3C)c2)C(CN2CCC[C@@H](Cc3ccc(F)cc3)C2)OC1=O.Cl (mixture of isomers; 19b)		0.15	17000	IC50 [2]: 15700 nM; Stability (Liver microsomes): Unstable; IC50 (Eosinophil; eosinophil): 0.13 nM
Cc1csc(NC(=O)NC2(C)CN(C)C(=O)OC2CN2CCC[C@@H](Cc3ccc(F)cc3)C2)n1 (mixture of isomers; 20a)		5.4		
Cc1csc(NC(=O)NC2(C)CN(C)C(=O)OC2CN2CCC[C@@H](Cc3ccc(F)cc3)C2)n1 (mixture of isomers; 20b)	3.4	0.37	2100	
CN1CC(C)(NC(=O)Nc2nc(C(C)(C)C)cs2)C(CN2CCC[C@@H](Cc3ccc(F)cc3)C2)OC1=O (mixture of isomers; 22a)		44		
CN1CC(C)(NC(=O)Nc2nc(C(C)(C)C)cs2)C(CN2CCC[C@@H](Cc3ccc(F)cc3)C2)OC1=O (mixture of isomers; 22b)		5.5	40000	
CCN(CCCc1ccc(F)cc1)CC1OC(=O)N(C)CC1(C)NC(=O)Nc1cccc(-c2nnnn2C)c1 (mixture of isomers; 23a)		0.18	5900	IC50 (Eosinophil; eosinophil): 4.4 nM
CCN(CCCc1ccc(F)cc1)CC1OC(=O)N(C)CC1(C)NC(=O)Nc1cccc(-c2nnnn2C)c1 (mixture of isomers; 23b)	> 3	0.47	14000	
